Data from patent US20230234941A1, “Salts of Compound and Pharmaceutical Compositions Containing the Same” (Shenzhen Forward Pharmaceuticals Co., Limited., priority 2020, published 2023).

What was measured:
Format in all cases: physicochemical
[1] = Chemical and physical stability of the salts at the end of the preparation
Excerpt: It is crucial for drug development whether the salts obtained as above have chemical and physical stability at the end of the preparation. The chemical and physical stability of the salts at the end of the preparation includes: […]

[2] = Solid solubility test (2 h and 24 h); conditions: for Solubility measured at 2 h: 37° C., based on free base; for XRPD measured at 2 h: state of sample / solid fraction; for XRPD measured at 24 h: 24 h test, state of sample
Experimental: samples were weighed for each amorphous salt solid (equivalent to 20 mg of free base), and 10 mL of the following solvents were respectively added: 0.1N HCl solution (pH 1.0), 50 mM phosphate buffer (pH 4.5), FeSSIF-V1 (pH 5.0), FaSSIF-V1 (pH 6.5) and SGF (pH 2.0), […] The suspension was then centrifuged at 37° C., the supernatant was measured for solubility by HPLC, and the solid fraction was measured for XRPD. The target solubility was at least 2 mg (based on free base)/mL.

[3] = Solid storage stability test; conditions: for Original morphology / Original purity: original solid before storage; for chemical and physical stability after storage (summary): solid/25° C./60% RH/open/1 week and/or solid/60° C./closed container/1 week
Experimental: Each amorphous salt solid was weighed (two 2 mg samples were weighed for purity testing after solid storage stability study, and one 10 mg sample was weighed for XRPD testing after solid storage stability study) and placed in a glass vial. In a 25° C./60% RH solid storage stability test, the amorphous salt solid was placed in a 25° C./60% RH constant temperature and humidity chamber, and placed in the dark for 1 week (i.e. “solid/25° C./60% RH/open/1 week”), and in a 60° C. solid storage stability test, the amorphous salt solid was sealed in an oven at 60° C. and heated for 1 week in the dark (i.e. “solid/60° C./closed container/l week”). Then the sample was taken out for purity testing, crystal form detection and appearance observation, respectively.

[4] = listed as amorphous 1 eq. mesylate salt
[5] = FaSSIF-V1 (pH 6.5) (Test ES4, partly printed ES1)
[6] = Test ES1: 0.1N HCl solution (pH 1.0)
[7] = Test ES2: 50 mM phosphate buffer (pH 4.5)
[8] = Test BS1: solid/25° C./60% RH/open/1 week
[9] = solid/60° C./closed container/1 week (Test BS1)
[10] = listed as amorphous 2 eq. mesylate salt

Row | SMILES | pH measured at 2 h [2, 5] | Solubility measured at 2 h [2, 5] [µg/mL] | XRPD measured at 2 h [2, 5] | pH measured at 2 h [2, 6] | Solubility measured at 2 h [2, 6] [µg/mL] | XRPD measured at 2 h [2, 6] | pH measured at 2 h [2, 7] | Solubility measured at 2 h [2, 7] [µg/mL] | XRPD measured at 2 h [2, 7] | pH measured at 2 h ([2]; Test ES3: FeSSIF-V1 (pH 5.0)) | Solubility measured at 2 h ([2]; Test ES3: FeSSIF-V1 (pH 5.0)) [µg/mL] | XRPD measured at 2 h ([2]; Test ES3: FeSSIF-V1 (pH 5.0)) | pH measured at 2 h ([2]; Test ES5: SGF (pH 2.0)) | Solubility measured at 2 h ([2]; Test ES5: SGF (pH 2.0)) [µg/mL] | XRPD measured at 2 h ([2]; Test ES5: SGF (pH 2.0)) | Purity [3, 8] [%] | Original morphology [3] | Original purity [3] [%] | Purity [3, 9] [%] | further results
1 | C=CC(=O)Nc1cc(Nc2ncnc(-c3cn(C)c4ccccc34)n2)c(OC)cc1N(C)CCN(C)C [Example 4] | (6.5) | >2000 | clear solution | (0.7) | >2000 | clear solution | (4.5) | >2000 | clear solution | (4.8) | >2000 | clear solution | (2.0) | >2000 | clear solution | 99.8 | amorphous | 99.9 | 99.9 | chemical and physical stability at the end of the preparation ([1]; listed as 1 eq. mesylate salt): chemically and physically stable; chemical and physical stability at the end of the preparation [1, 4]: chemically and physically stable; Solubility measured at 24 h ([2]; Test ES3: FeSSIF-V1 (pH 5.0)): >2000 µg/mL; pH measured at 24 h ([2]; Test ES3: FeSSIF-V1 (pH 5.0)): (5.0); XRPD measured at 24 h ([2]; Test ES3: FeSSIF-V1 (pH 5.0)): clear solution; Solubility measured at 24 h ([2]; Test ES4: FaSSIF-V1 (pH 6.5)): >2000 µg/mL; pH measured at 24 h ([2]; Test ES4: FaSSIF-V1 (pH 6.5)): (6.6); XRPD measured at 24 h ([2]; Test ES4: FaSSIF-V1 (pH 6.5)): clear solution; chemical and physical stability after storage (summary) ([3]; listed as 1 eq. mesylate salt): chemically and physically stable; chemical and physical stability after storage (summary) [3, 4]: chemically and physically stable; physical and chemical stability under storage (in words) ([3]; solid/25° C./60% RH/open/1 week, listed as amorphous 1 eq. mesylate salt): good physical and chemical stability; physical and chemical stability under storage (in words) ([3]; solid/60° C./closed container/1 week, listed as amorphous 1 eq. mesylate salt): good physical and chemical stability
2 | C=CC(=O)Nc1cc(Nc2ncnc(-c3cn(C)c4ccccc34)n2)c(OC)cc1N(C)CCN(C)C [Example 5] | (6.2) | >2000 | clear solution | (0.7) | >2000 | clear solution | (4.2) | >2000 | clear solution | (4.8) | >2000 | clear solution | (1.8) | >2000 | clear solution | 99.9 | amorphous | 99.9 | 99.8 | chemical and physical stability at the end of the preparation ([1]; listed as 2 eq. mesylate salt): chemically and physically stable; chemical and physical stability at the end of the preparation [1, 10]: chemically and physically stable; chemical and physical stability after storage (summary) ([3]; listed as 2 eq. mesylate salt): physically unstable; chemical and physical stability after storage (summary) [3, 10]: physically unstable; physical and chemical stability under storage (in words) ([3]; solid/25° C./60% RH/open/1 week, listed as amorphous 2 eq. mesylate salt): transformed from amorphous to a low crystallinity and showed a certain hygroscopicity (agglomeration); physical and chemical stability under storage (in words) ([3]; solid/60° C./closed container/1 week, listed as amorphous 2 eq. mesylate salt): a certain hygroscopicity (partial agglomeration)
